Key:
E. coli (NCTC 10418) = assay: Binding of Alexa Fluor 488-labeled GA to bacteria (MFI by flow cytometry); design: species or system Escherichia coli; conditions: PBS + 50 mM NaCl, total salt 200 mM, GA 50 and 10 μg/ml
Description: GA was diluted in freshly made 0.1 M NaHCO3 and labeled with Alexa Fluor 488 according to manufacturer's instruction. Late-log phase E. coli (strain NCTC 10418), P. aeruginosa (strain PAO1, ATCC 15692) and S. aureus (Wood 46, NCTC 7121) were resuspended in PBS or PBS supplemented with 50 mM NaCl; treated with either 50 μg/ml or 10 μg/ml Alexa Fluor® 488-labeled GA and incubated on a shaker at 37° C. for 30 minutes. Hereafter, bacteria were diluted 1:100 in PBS and analyzed on a Novocyte™ flow cytometer.
This constitutes a problem when for example treating patients with cystic fibrosis. These patients have a high salt concentration in their lungs of about 150-200 mM, and it is therefore critical that drugs used for treating these patients are active at such high salt concentrations (Gilljam H et al., Scand J Clin Lab Invest. 1989 April; 49(2):121-4). Therefore, the binding capacity of GA to bacteria resuspended in PBS or in PBS supplemented with 50 mM NaCl. PBS+50 mM NaCl results in a total salt concentration of 200 mM. […]
Mean Fluorescence intensities (MFI) were assessed by flow cytometry to quantify the binding capacity of GA to the bacterial membrane. […]

[1] = system: S. aureus (Wood 46, NCTC 7121); assay: Colony-forming unit (CFU) counting; type: cell-based, Staphylococcus aureus; conditions: 30 minutes at 37° C. in PBS
Description: Late-log phase E. coli (strain NCTC 10418), P. aeruginosa (strain PAO1, ATCC 15692) and S. aureus (Wood 46, NCTC 7121) were resuspended in PBS and treated with different concentrations of glatiramer acetate (GA) or LL-37 (Innovagen, Lund, Sweden) and incubated on a shaker for 30 minutes at 37° C. Subsequently, a dilution series was performed to achieve a suitable amount of bacteria on the 5% blood agar plates. The 5% blood agar streak plates were cultured at 37° C. for 16 h and the resulting CFUs on the blood agar plates were imaged with a digital camera and counted with the aid of the software ImageJ 1.48v.

Substance: Glatiramer acetate [GA]
- binding capacity to bacteria (MFI, in words) (E. coli (NCTC 10418)): retained its binding capacity
- antibacterial effect by CFU counting (in words) [1]: low antimicrobial impact

— patent US10166253B2, “Positively charged co-polymers for use as antimicrobial agents” (priority 2014, dated 2019)
